According to publication PMC5933457, “Probing biological activity through structural modelling of ligand-receptor interactions of 2,4-disubstituted thiazole retinoids” (Bioorganic & Medicinal Chemistry, 2018):

How the values were obtained:
[1] = tested on: RARβ; settings: RARβ2 isoform; cited from earlier work
[2] = tested on: TERA2.cl.SP12 stem cells; experiment: Real-time PCR for neuronal markers NeuroD1 and PAX6; type: cell-based, human; settings: 10 μM, Fig. 7B; for induction of PAX6 expression, rank order: up to 7 days
Procedure: Second, NeuroD1 and PAX6 are retinoid-induced transcription factors involved in regulating neuronal differentiation,[49], [50] and are expressed in neurons derived from TERA2.cl.SP12 stem cells.
(§1) Real time PCR was carried out immediately after treatment on both cell line lysates with 0.25% trypsin–EDTA. TERA-2.cl.SP12 cells were seeded at a density of 1 × 10^6 cells per 25 cm^2 flask, 12–24 h before treatment. […] SH-SY5Y cells were seeded at a density of 1 × 10^6 cells per 25 cm^2 flask, 12–24 h before treatment. […] Commercial RNA extraction kits (Qiagen) and reverse transcription (Applied Biosystems) kits were purchased and procedures used according to the manufacturer instructions. Real time PCR was performed using the TaqMan® Universal PCR Master Mix (Life technologies) and TaqMan® gene expression system (Applied Biosystems) based on probe sets to the specific genes to be analysed. Genecodes used are as follows: RARβ (Hs00233407_m1), CYP26-A1 (Hs00175627_m1), RARα (Hs00940448_g1), RARγ (Hs01559234_m1), PAX-6 (Hs01088112_m1), NeuroD1 (Hs01922995_s1). GADPH (Hs02758991_g1) and ACTB (Hs99999903_m1) were used as internal control genes for TERA-2.cl.SP12 and SH-SY5Y, respectively.

[3] = tested on: SH-SY5Y human neuroblastoma cells; experiment: Retinoid-induced gene expression (RARα, RARβ, RARγ, CYP26A1) by real-time PCR; type: cell-based; settings: for induction of RARα and RARγ expression: 10 μM retinoid, over a 12 h period, Fig. 8A; for induction of RARβ expression, rank order / induction of CYP26A1 expression, rank order: dose-response 1 nM to 1 μM, 8 h treatment, Fig. 8B; for induction of RARβ expression, rank order: all doses; for induction of CYP26A1 expression, rank order: doses <1 μM
Procedure: As an additional assay of biological activity, short-term changes in expression of four genes in SH-SY5Y cells was employed; a neuroblastoma-derived lineage that undergoes neuronal differentiation in response to retinoid treatment. The four genes assayed, RARα, RARβ, RARγ and CYP26A, have RAREs associated with their promoters and may be directly regulated by retinoids.[51], [52]
as §1

| SMILES | RAR-type selectivity [1] | NeuroD1 mRNA expression, rank order ([2]; after 5 days) | induction of PAX6 expression, rank order [2] | time-course of RARβ and CYP26A1 induction ([3]; 10 μM retinoid treatment) | induction of RARα and RARγ expression [3] | induction of RARβ expression, rank order [3] | induction of CYP26A1 expression, rank order [3] | NeuroD1 mRNA expression, rank order ([2]; after 7 days) |
| --- | --- | --- | --- | --- | --- | --- | --- | --- |
| CCOCCOc1nc(-c2ccc(C(=O)O)cc2)sc1C [GZ18] | RARβ2-specific retinoid | GZ25 > GZ18 > ATRA | GZ25 ≫ ATRA > GZ18 | less active in comparison to either GZ25 or ATRA | lower levels of induction | GZ25 ≫ ATRA > GZ18 | GZ25 > GZ18 > ATRA |  |
| Cc1sc(-c2ccc(C(=O)O)cc2)nc1-c1ccc2c(c1)C(C)(C)CCC2(C)C [GZ25] |  | GZ25 > GZ18 > ATRA | GZ25 ≫ ATRA > GZ18 |  | lower levels of induction | GZ25 ≫ ATRA > GZ18 | GZ25 > GZ18 > ATRA | ATRA > GZ25 |
